Measured values published in US9546164B2 (GENENTECH, INC., priority 2013, dated 2017).
Counter-ions that a name gives are not always drawn.
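Also: Filter-bound radioactivity counted by liquid scintillation, nonspecific binding defined with excess unlabelled ligand, IC50 fitted to percent inhibition of specific binding.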

Each molecule was assayed against hNav1.7 (Homo sapiens (Human), UniProt Q15858) (assay: Tritiated sulfonamide competitive binding to membranes from cells expressing hNav1.7 and the β1 subunit). Details: not given.
hNav1.7, sequence (Q15858 other isoform, or with tags, fused parts or gaps): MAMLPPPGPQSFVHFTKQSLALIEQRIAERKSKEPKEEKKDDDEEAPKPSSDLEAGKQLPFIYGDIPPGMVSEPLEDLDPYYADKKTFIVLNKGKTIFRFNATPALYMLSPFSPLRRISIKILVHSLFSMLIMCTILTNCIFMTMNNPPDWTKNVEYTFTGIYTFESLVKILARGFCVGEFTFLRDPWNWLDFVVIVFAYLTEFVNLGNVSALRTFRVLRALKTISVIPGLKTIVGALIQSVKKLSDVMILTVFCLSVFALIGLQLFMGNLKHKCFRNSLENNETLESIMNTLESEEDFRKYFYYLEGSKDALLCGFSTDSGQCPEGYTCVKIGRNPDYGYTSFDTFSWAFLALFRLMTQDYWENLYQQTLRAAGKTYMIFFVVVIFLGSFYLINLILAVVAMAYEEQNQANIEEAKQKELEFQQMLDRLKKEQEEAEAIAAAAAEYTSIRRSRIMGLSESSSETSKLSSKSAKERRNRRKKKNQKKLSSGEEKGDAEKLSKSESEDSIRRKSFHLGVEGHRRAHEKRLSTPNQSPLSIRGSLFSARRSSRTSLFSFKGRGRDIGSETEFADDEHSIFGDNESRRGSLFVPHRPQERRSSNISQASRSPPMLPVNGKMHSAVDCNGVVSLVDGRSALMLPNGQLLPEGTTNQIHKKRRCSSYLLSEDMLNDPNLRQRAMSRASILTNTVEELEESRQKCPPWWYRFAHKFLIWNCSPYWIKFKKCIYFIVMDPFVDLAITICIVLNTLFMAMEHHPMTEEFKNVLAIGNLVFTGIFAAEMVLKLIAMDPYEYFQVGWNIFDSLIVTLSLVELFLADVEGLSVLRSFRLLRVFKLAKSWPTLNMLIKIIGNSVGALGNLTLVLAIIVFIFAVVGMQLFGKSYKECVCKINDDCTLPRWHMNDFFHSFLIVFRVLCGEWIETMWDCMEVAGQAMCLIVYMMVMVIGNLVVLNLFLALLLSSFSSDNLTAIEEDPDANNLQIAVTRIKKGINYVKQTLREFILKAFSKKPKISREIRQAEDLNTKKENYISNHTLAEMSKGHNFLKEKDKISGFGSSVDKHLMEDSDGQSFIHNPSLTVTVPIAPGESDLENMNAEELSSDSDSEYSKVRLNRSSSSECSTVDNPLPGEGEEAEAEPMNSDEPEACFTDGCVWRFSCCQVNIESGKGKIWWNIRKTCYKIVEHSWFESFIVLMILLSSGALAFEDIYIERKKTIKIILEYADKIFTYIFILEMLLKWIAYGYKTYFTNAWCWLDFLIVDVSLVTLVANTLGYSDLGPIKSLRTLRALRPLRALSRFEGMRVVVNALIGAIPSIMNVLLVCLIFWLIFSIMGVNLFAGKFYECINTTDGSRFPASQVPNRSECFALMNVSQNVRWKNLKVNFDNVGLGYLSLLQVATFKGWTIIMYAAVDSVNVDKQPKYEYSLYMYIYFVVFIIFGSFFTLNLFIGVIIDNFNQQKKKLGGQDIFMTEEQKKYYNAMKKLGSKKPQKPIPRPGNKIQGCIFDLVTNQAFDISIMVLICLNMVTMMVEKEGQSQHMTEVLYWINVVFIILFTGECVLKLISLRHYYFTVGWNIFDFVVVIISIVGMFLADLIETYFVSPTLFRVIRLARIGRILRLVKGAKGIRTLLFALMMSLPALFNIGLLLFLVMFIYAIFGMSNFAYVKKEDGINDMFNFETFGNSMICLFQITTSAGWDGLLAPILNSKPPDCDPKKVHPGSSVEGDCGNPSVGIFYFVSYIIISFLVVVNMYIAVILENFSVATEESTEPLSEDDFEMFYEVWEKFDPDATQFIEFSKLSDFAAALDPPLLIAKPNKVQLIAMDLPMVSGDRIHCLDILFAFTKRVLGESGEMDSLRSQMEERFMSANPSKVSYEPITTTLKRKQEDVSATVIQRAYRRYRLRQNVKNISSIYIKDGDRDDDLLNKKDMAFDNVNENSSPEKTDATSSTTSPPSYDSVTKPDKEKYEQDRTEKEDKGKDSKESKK
hNav1.7, sequence (Q07699 19-218 partner): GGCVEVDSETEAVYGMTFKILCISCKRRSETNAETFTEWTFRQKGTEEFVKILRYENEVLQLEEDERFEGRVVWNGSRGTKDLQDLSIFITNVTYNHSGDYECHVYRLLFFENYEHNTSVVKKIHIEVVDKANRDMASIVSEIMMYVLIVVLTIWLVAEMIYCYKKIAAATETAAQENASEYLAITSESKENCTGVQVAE
In the case of O=C(NS(=O)(=O)C1CC1)c1cc(C2CC2)c(CN2CCN(Cc3cc(Cl)cc(Cl)c3)CC2)cc1F [Example 518, 5-cyclopropyl-N-(cyclopropylsulfonyl)-4-((4-(3,5-dichlorobenzyl)piperazin-1-yl)methyl)-2-fluorobenzamide, trifluoroacetic acid salt], the IC50 is reported as 8.2 nM.
CS(=O)(=O)NC(=O)c1cc(C2CC2)c(O[C@@H]2CCCN(Cc3cccc4c3CNC4)C2)cc1F [Example 14, (R)-5-cyclopropyl-2-fluoro-4-((1-(isoindolin-4-ylmethyl)piperidin-3-yl)oxy)-N-(methylsulfonyl)benzamide] showed an IC50 of 318 nM.
Molecule O=C(NS(=O)(=O)C1CC1)c1cc(C2CC2)c(O[C@@H]2CCCN(Cc3ccc(Cl)cc3Cl)C2)cc1F [Example 31, (R)-5-cyclopropyl-N-(cyclopropylsulfonyl)-4-((1-(2,4-dichlorobenzyl)piperidin-3-yl)oxy)-2-fluorobenzamide] has an IC50 of 2.6 nM.
For O=C(NS(=O)(=O)C1CC1)c1cc(C2CC2)c(CN2CCC([S+]([O-])c3cc(Cl)cc(Cl)c3)CC2)cc1F (centres unmarked) [Example 535, 5-cyclopropyl-N-(cyclopropylsulfonyl)-4-((4-((3,5-dichlorophenyl)sulfinyl)piperidin-1-yl)methyl)-2-fluorobenzamide, trifluoroacetic acid salt], the IC50 was 720 nM.
Molecule O=C(NS(=O)(=O)C1CC1)c1cc(C2CC2)c(CN2CCC(Oc3cc(C(F)(F)F)cc(Cl)c3F)CC2)cc1F [Example 537, 4-((4-(3-chloro-2-fluoro-5-(trifluoromethyl)phenoxy)piperidin-1-yl)methyl)-5-cyclopropyl-N-(cyclopropylsulfonyl)-2-fluorobenzamide, trifluoroacetic acid salt] has an IC50 of 5.7 nM.
Molecule O=C(NS(=O)(=O)C1CC1)c1cc(C2CC2)c(CN2CCC(Oc3ccc(Cl)c(Cl)c3)CC2)cc1F [Example 510, 5-cyclopropyl-N-(cyclopropylsulfonyl)-4-((4-(3,4-dichlorophenoxy)piperidin-1-yl)methyl)-2-fluorobenzamide, trifluoroacetic acid salt] has an IC50 of 9.1 nM.
CS(=O)(=O)NC(=O)c1cc(C2CC2)c(CN2CC(Oc3cc(Cl)cc(Cl)c3)C2)cc1F [Example 544, 5-cyclopropyl-4-((3-(3,5-dichlorophenoxy)azetidin-1-yl)methyl)-2-fluoro-N-(methylsulfonyl)benzamide, trifluoroacetic acid salt] gave an IC50 of 15.3 nM.
CS(=O)(=O)NC(=O)c1cc(C2CC2)c(OCC2CN([C@H](c3ccccc3)c3ccc(C#N)cc3)C2)cc1F [Example 111, (R)-4-((1-((4-Cyanophenyl)(phenyl)methyl)azetidin-3-yl)methoxy)-5-cyclopropyl-2-fluoro-N-(methylsulfonyl)benzamide] was tested, and the IC50 was 20.4 nM.

Same assay, conditions: read-out: Ligand Binding Assay; 100 pM [3H]compound, membranes with hNav1.7 and β1 subunit, 18 h, room temperature
CS(=O)(=O)NC(=O)c1cc(C2CC2)c(CN2CCO[C@H](Cc3ccc(F)cc3Cl)C2)cc1F [Example 466, (R)-4-((2-(2-chloro-4-fluorobenzyl)morpholino)methyl)-5-cyclopropyl-2-fluoro-N-(methylsulfonyl)benzamide, trifluoroacetic acid salt] gave an IC50 of 7.3 nM.
O=C(NS(=O)(=O)N1CCC1)c1cc(C2CC2)c(O[C@H]2CCN(Cc3ccccc3)C2)cc1F [Example 45, (S)—N-(azetidin-1-ylsulfonyl)-4-((1-benzylyprrolidin-3-yl)oxy)-5-cyclopropyl-2-fluorobenzamide] was tested, and the IC50 was 4580 nM.
C[C@H](c1ccc(F)cc1Cl)N1C[C@H]2C[C@@H]1[C@H](Oc1cc(F)c(C(=O)NS(C)(=O)=O)cc1C1CC1)C2 [Example 451, 4-(((1R,4s,6R)-2-((R)-1-(2-chloro-4-fluorophenyl)ethyl)-2-azabicyclo[2.2.1]heptan-6-yl)oxy)-5-cyclopropyl-2-fluoro-N-(methylsulfonyl)benzamide, trifluoroacetic acid salt] showed an IC50 of 25.7 nM.
For C[C@H](c1cc(Cl)cc(C(F)(F)F)c1)N1CCC(COc2cc(F)c(C(=O)NS(C)(=O)=O)cc2C2CC2)CC1 (single isomer, unassigned) [Example 276], the IC50 was 5.7 nM.
CS(=O)(=O)NC(=O)c1cc(C2CC2)c(OCC2CN([C@H](c3ccccc3)c3cc(Cl)cc(Cl)c3)C2)cc1F [Example 143] showed an IC50 of 2.6 nM.
O=C(NS(=O)(=O)C1CC1)c1cc(C2CC2)c(OCC2CCN(C3(c4cc(Cl)cc(Cl)c4)COC3)CC2)cc1F [Example 175, 5-Cyclopropyl-N-(cyclopropylsulfonyl)-4-((1-(3-(3,5-dichlorophenyl)oxetan-3-yl)piperidin-4-yl)methoxy)-2-fluorobenzamide] gave an IC50 of 5.2 nM.
Work on CC1(COc2cc(F)c(C(=O)NS(=O)(=O)C3CC3)cc2C2CC2)CN(c2cc(Cl)c(C(F)(F)F)cn2)C1 [Example 486, 4-((1-(4-chloro-5-(trifluoromethyl)pyridin-2-yl)-3-methylazetidin-3-yl)methoxy)-5-cyclopropyl-N-(cyclopropylsulfonyl)-2-fluorobenzamide, trifluoroacetic acid salt] yielded an IC50 of 5.6 nM.
CS(=O)(=O)NC(=O)c1cc(Cl)c(OCC2CN(C(c3ccccc3)c3ccccc3)C2)cc1F [Example 59, 4-((1-benzhydrylazetidin-3-yl)methoxy)-5-chloro-2-fluoro-N-(methylsulfonyl)benzamide] was tested, and the IC50 was 76 nM.
With CC(c1cc(Cl)cc(Cl)c1)N1CCC(COc2cc(F)c(C(=O)NS(C)(=O)=O)cc2C2CC2)CC1 (centres unmarked) [Example 97, 5-Cyclopropyl-4-((1-(1-(3,5-dichlorophenyl)ethyl)piperidin-4-yl)methoxy)-2-fluoro-N-(methylsulfonyl)benzamide] the IC50 was 2.69 nM.
Molecule CC(C)Nc1ccc(F)cc1CN1CCC(COc2cc(F)c(C(=O)NS(=O)(=O)C3CC3)cc2C2CC2)CC1 [Example 356, 5-cyclopropyl-N-(cyclopropylsulfonyl)-2-fluoro-4-((1-(5-fluoro-2-(isopropylamino)benzyl)piperidin-4-yl)methoxy)benzamide, trifluoroacetic acid salt] has an IC50 of 5.8 nM.
O=C(NS(=O)(=O)N1CCC1)c1cc(Cl)c(OCC2CCN(Cc3cc(Cl)cc(OC(F)(F)F)c3)CC2)cc1F [Example 408, N-(azetidin-1-ylfulfonyl)-5-chloro-4-((1-(3-chloro-5-(trifluoromethoxy)benzyl)piperidin-4-yl)methoxy)-2-fluorobenzamide, trifluoroacetic acid suit] gave an IC50 of 22.7 nM.
O=C(NS(=O)(=O)N1CCC1)c1cc(C2CC2)c(OCC2CC3CCC(C2)N3Cc2ccccc2)cc1F (centres unmarked) [Example 48, N-(azetidin-1-ylsulfonyl)-4-((8-benzyl-8-azabicyclo[3.2.1]octan-3-yl)methoxy)-5-cyclopropyl-2-fluorobenzamide] was tested, and the IC50 was 2820 nM.
For CS(=O)(=O)NC(=O)c1cc(C2CC2)c(OCC2CCN(Cc3ccc(F)cc3C(F)(F)F)CC2)cc1F [Example 586, 5-cyclopropyl-2-fluoro-4-((1-(4-fluoro-2-(trifluoromethyl)benzyl)piperidin-4-yl)methoxy)-N-(methylsulfonyl)benzamide], the IC50 was 5.2 nM.
CS(=O)(=O)NC(=O)c1cc(C2CC2)c(OCC2CN(Cc3ccccc3)C2)cc1F [Example 74, -((1-benzylazetidin-3-yl)methoxy)-5-cyclopropyl-2-fluoro-N-(methylsulfonyl)benzamide] showed an IC50 of 3600 nM.
COc1ccc(CN2CCC[C@@H](Oc3cc(F)c(C(=O)NS(C)(=O)=O)cc3C3CC3)C2)c(Cl)c1 [Example 432, (R)-4-((1-(2-chloro-4-methoxybenzyl)piperidin-3-yl)oxy)-5-cyclopropyl-2-fluoro-N-(methylsulfonyl)benzamide, trifluoroacetic acid salt] showed an IC50 of 3.3 nM.
CC(C)Oc1ncc(CN2CC(COc3cc(F)c(C(=O)NS(C)(=O)=O)cc3C3CC3)C2)cc1Cl [Example 83, 4-((1-((5-Chloro-6-isopropoxypyridin-3-yl)methyl)azetidin-3-yl)methoxy)-5-cyclopropyl-2-fluoro-N-(methylsulfonyl)benzamide] was tested, and the IC50 was 59 nM.
CS(=O)(=O)NC(=O)c1cc(C2CC2)c(OCC2CN([C@@H](c3ccccc3)c3ccc(OC(F)(F)F)cc3)C2)cc1F [Example 112, (S)-5-Cyclopropyl-2-fluoro-N-(methylsulfonyl)-4-((1-(phenyl(4-(trifluoromethoxy)phenyl)methyl)azetidin-3-yl)methoxy)benzamide] showed an IC50 of 3.35 nM.
With CS(=O)(=O)NC(=O)c1cc(C2CC2)c(OC[C@H]2CCN(Cc3cc(Cl)cc(Cl)c3)C(=O)C2)cc1F (single isomer, unassigned) [Example 235] the IC50 was 210 nM.
O=C(NS(=O)(=O)C1CC1)c1cc(C2CC2)c(OCC2CCN(C(=O)c3cc(Cl)cc(Cl)c3)CC2)cc1F [Example 254, 5-Cyclopropyl-N-(cyclopropylsulfonyl)-4-((1-(3,5-dichlorobenzoyl)piperidin-4-yl)methoxy)-2-fluorobenzamide] was tested, and the IC50 was 26 nM.
O=C(NS(=O)(=O)C1CC1)c1cc(C2CC2)c(OCC2CCN(C(c3ccccc3)c3cc(Cl)cc(Cl)c3)CC2)cc1F (centres unmarked) [Example 411, 5-cyclopropyl-N-(cyclopropylsulfonyl)-4-((1-((3,5-dichlorophenyl)(phenyl)methyl)piperidin-4-yl)methoxy)-2-fluorobenzamide, trifluoroacetic acid salt] was tested, and the IC50 was 0.8 nM.
C[C@@H](c1ccc(Cl)cc1Cl)N1CCC(C)(COc2cc(F)c(C(=O)NS(C)(=O)=O)cc2C2CC2)CC1 [Example 280, (S)-5-cyclopropyl-4-((1-(1-(2,4-dichlorophenyl)ethyl)-4-methylpiperidin-4-yl)methoxy)-2-fluoro-N-(methylsulfonyl)benzamide] showed an IC50 of 8.1 nM.
C[C@@H](c1cc(Cl)cc(Cl)c1)N1CCC(COc2cc(F)c(C(=O)NS(=O)(=O)N3CCC3)cc2C2CC2)CC1 (single isomer, unassigned) [Example 272] showed an IC50 of 4.2 nM.
C[C@H](c1ccc(Cl)c(Cl)c1)N1CCC(COc2cc(F)c(C(=O)NS(C)(=O)=O)cc2C2CC2)CC1 (single isomer, unassigned) [Example 214] gave an IC50 of 3.1 nM.
With O=C(NS(=O)(=O)C1CC1)c1cc(C2CC2)c(OCC2CCN(S(=O)(=O)c3cc(F)c(F)c(F)c3)CC2)cc1F [Example 381, 5-cyclopropyl-N-(cyclopropylsulfonyl)-2-fluoro-4-((1-((3,4,5-trifluorophenyl)sulfonyl)piperidin-4-yl)methoxy)benzamide] the IC50 was 14.8 nM.
